Source: paper PMC7026882, “Macrofilaricidal Benzimidazole–Benzoxaborole Hybrids as an Approach to the Treatment of River Blindness: Part 2. Ketone Linked Analogs” (ACS Infectious Diseases, 2019)
Like-named read-outs stand apart in the source and are kept apart here.

Tests used:
[1] = system: mammalian tubulin (G2/M arrest); test: G2/M arrest assay, indicative of interaction with mammalian tubulin; format: cell-based
Excerpt: (§1) As summarized in Table 1, we were encouraged to find that the initial ketone analogs prepared, namely, 15 (6-linked) and 20 (5-linked), were quite active in an O. volvulus molting assay we used as a primary indicator of antiparasitic activity[30],[31] and were only weakly active in a G2/M arrest,[32] indicative of the interaction with mammalian tubulin. As described above, our hypothesis was to reduce Pgp efflux liability through elimination of the hydrogen-bond donor associated with the N–H of the amide linker, as this has been shown in the literature to be a contributor to recognition by Pgp.[33],[34] […] We were disappointed to find that the 5-linked analog 22 was poorly selective and the 6-linked analog 23 was only weakly active.

O. volvulus = O. volvulus molting assay; format: cell-based; conditions: Onchocerca volvulus; for IC50: molting assay
Excerpt: as §1, with “active. […]” for “active.”
(§2) in comparison to the number of control larvae that had successfully molted. IC50 values were calculated using GraphPad Prism v6.0 (http://www.graphpad.com). See Bullman et al., PLoS
(§3) Negl. Trop. Dis., 2015, 9, e3534 for further details.
(§4) Adult Brugia malayi in vivo model procedure.
(§5) Gerbils (Meriones unguiculatus) were infected by transplantation of 10 male and 10 female adult Brugia malayi into the peritoneal cavity. Gerbils were acclimated for 7 days prior to treatment. Animals were dosed based on their body weight prior to each dosing. Animals were administered their doses at the same time each day and receive standard rodent laboratory diet and water ad libitum. Gerbils were humanely euthanized at the conclusion of each study.
(§6) Peritoneal counts of male and female adult B. malayi and visual condition of the peritoneum […]
(§7) L3 Brugia pahangi in vivo model procedure.
(§8) Male gerbils (Meriones unguiculatus) approximately 6 weeks of age (50-60 g) were purchased from Charles Rivers (USA, Kingston K62 Gerbils) and infected by intraperitoneal injection with 200 Brugia pahangi third-stage larvae (L3) per animal (Filariatech, Inc., Athens, GA). Gerbils were housed with no more than 5 animals per cage and maintained 9 months prior to treatment. All gerbils were dosed in accordance with their body weight determined prior to each dosing. Animals were administered their doses at the same time each day and are allowed to feed and drink ad libitum. Gerbils were euthanized following approved institutional protocols. Euthanized animals were weighed and examined for external and visceral pathologies. The adult Brugia worms were recovered by opening the body cavity and washing the peritoneal cavity with 100 mL of phosphate buffered saline. Male and female worms were counted using a dissecting microscope.
(§9) Litomosoides sigmodontis in vivo model procedure. 2
(§10) All animal experiments with L. sigmodontis were conducted at the Institute for Medical Microbiology, Immunology and Parasitology (IMMIP), University Hospital of Bonn, in accordance to the European Union animal welfare guidelines. All protocols were approved by the local authorities (Landesamt für Natur, Umwelt und Verbraucherschutz, Cologne, Germany (AZ 84- […]
(§11) Janvier (Saint-Berthevin, France) and were housed at the animal facility of the IMMIP in individually ventilated cages on a 12h light/dark cycle with food and water ad libidum. Mice were infected at 6-8 weeks of age via exposure to the natural mite vector Ornithonyssus bacoti

[2] = Metabolic stability (Clint) in human microsomes; format: in vitro ADME
Excerpt: as §1

P-gp (MDR1) = test: MDCK-MDR1 cell monolayer permeability assay; format: in vitro ADME; conditions: dog
Excerpt: as §1

[3] = Metabolic stability (Clint) in gerbil microsomes; format: in vitro ADME
Excerpt: as §1

[4] = Pharmacokinetics in Mongolian gerbils; format: in vivo; conditions: blood, Mongolian gerbils; for AUC(0-t): read-out: AUC0–24; for Cmax: read-out: Cmax; for bioavailability: po, read-out: bioavailability (%F)
Excerpt: In addition, the concentrations achieved at these doses were well in excess of the O. volvulus IC50, a requirement for in vivo activity that we had hypothesized on the basis of earlier work in the amide-linked series.

Brugia pahangi = test: In vivo efficacy in the L3 Brugia pahangi gerbil model
Method: For our in vivo model, gerbils were infected by injecting B. pahangi third-stage larvae (L3) that were subsequently allowed to develop to adult worms over several months. Once stable infections had been established, 21 was administered as a suspension via once-daily oral gavage at a dose of 100 mg/kg for 7, 14, or 28 days. All animals were maintained until day 63 after the start of dosing, at which time adult worms were recovered from the peritoneal cavity and microfilariae were quantified in blood samples. Flubendazole (5 mg/kg, SC × 5 days) was included as a positive control in this study. […]
as §2, §3, §4, §5, §6, §7, §8, §9, §10, §11

[5] = system: LF (lymphatic filariasis); parameters: method as in PMID 30650084; conditions: by route of administration; cited from earlier work
[6] = system: P-glycoprotein transporter (Pgp); parameters: method as in PMID 30650084; conditions: limits oral bioavailability; cited from earlier work
[7] = SC, 10 mg/kg, 5 days, QD, positive control

COC(=O)Nc1nc2cc(C(=O)c3ccc4c(c3)B(O)O[C@@H]4C)ccc2[nH]1 (single isomer, unassigned) [compound 24]
IC50 [1]: > 100 µM
inhibition at 1 µM (O. volvulus): 2%
IC50 (O. volvulus): > 1000 nM

COC(=O)Nc1nc2cc(C(=O)c3ccc4c(c3)B(O)O[C@H]4C)ccc2[nH]1 (single isomer, unassigned) [compound 25]
IC50 [1]: > 100 µM
microsomal CLint [2]: < 4 µL/min/mg
Papp A→B (P-gp (MDR1)): 15.5 ×10⁻⁶ cm/s
microsomal CLint [3]: < 4 µL/min/mg
IC50 (O. volvulus): 40 nM

COC(=O)Nc1nc2cc(C(=O)c3cccc4c3B(O)O[C@@H]4C)ccc2[nH]1 (single isomer, unassigned) [compound 29]
IC50 [1]: 5.6 µM
microsomal CLint [2]: < 4 µL/min/mg
Papp A→B (P-gp (MDR1)): 57.2 ×10⁻⁶ cm/s
microsomal CLint [3]: < 4 µL/min/mg
IC50 (O. volvulus): 100 nM

COC(=O)Nc1nc2cc(C(=O)c3cccc4c3B(O)O[C@H]4C)ccc2[nH]1 (single isomer, unassigned) [compound 30]
IC50 [1]: 12.2 µM
microsomal CLint [2]: < 4 µL/min/mg
Papp A→B (P-gp (MDR1)): 34.3 ×10⁻⁶ cm/s
AUC(0-t) ([4]; 2 mg/kg, dose 2, IV): 14600 ng·h/mL
Cmax ([4]; 2 mg/kg, dose 2, IV): 7580 ng/mL
AUC(0-t) ([4]; 10 mg/kg, dose 10, PO): 141000 ng·h/mL
Cmax ([4]; 10 mg/kg, dose 10, PO): 14000 ng/mL
bioavailability ([4]; 10 mg/kg, dose 10, PO): ~100%
microsomal CLint [3]: < 4 µL/min/mg
IC50 (O. volvulus): 110 nM

COC(=O)Nc1nc2cc(C(=O)c3ccc(F)cc3)ccc2[nH]1 [compound 3, flubendazole, reference compound]
IC50 [1]: 0.67 µM
Number of Worms Recovered, Avg Female Worms (Brugia pahangi; [7]): 0.0
Number of Worms Recovered, Avg Male Worms (Brugia pahangi; [7]): 0.0
worms recovered from positive control group (Brugia pahangi; given SC): no worms recovered
Papp A→B (P-gp (MDR1); A-B, read-out: MDCK-MDR1 Papp (A-B)): 15.6 ×10⁻⁶ cm/s
microsomal CLint [3]: < 4 µL/min/mg
IC50 (O. volvulus): 4 nM

COC(=O)Nc1nc2cc(C(=O)NCc3ccc4c(c3)B(O)OC4(C)C)ccc2[nH]1 [compound 4]
activity in in vivo models of LF [5]: only active in in vivo models of LF following subcutaneous administration
efflux via P-glycoprotein transporter (Pgp) [6]: subject to efflux

COC(=O)Nc1nc2cc(C(=O)c3ccc4c(c3)B(O)OC4)ccc2[nH]1 [compound 15]
IC50 [1]: 12.3 µM
Papp A→B (P-gp (MDR1)): 6 ×10⁻⁶ cm/s
AUC(0-t) ([4]; 2 mg/kg, dose 2, IV): 880 ng·h/mL
Cmax ([4]; 2 mg/kg, dose 2, IV): 2260 ng/mL
AUC(0-t) ([4]; 10 mg/kg, dose 10, PO): 790 ng·h/mL
Cmax ([4]; 10 mg/kg, dose 10, PO): 270 ng/mL
bioavailability ([4]; 10 mg/kg, dose 10, PO): 18%
microsomal CLint [3]: 8.25 µL/min/mg
IC50 (O. volvulus): 118 nM

COC(=O)Nc1nc2cc(C(=O)c3cccc4c3COB4O)ccc2[nH]1 [compound 19]
IC50 [1]: > 100 µM
microsomal CLint [2]: 5.56 µL/min/mg
Papp A→B (P-gp (MDR1)): 28.3 ×10⁻⁶ cm/s
IC50 (O. volvulus): 1590 nM

COC(=O)Nc1nc2cc(C(=O)c3ccc4c(c3)COB4O)ccc2[nH]1 [compound 20]
IC50 [1]: 9.8 µM
Papp A→B (P-gp (MDR1)): 11.7 ×10⁻⁶ cm/s
AUC(0-t) ([4]; 2 mg/kg, dose 2, IV): 1160 ng·h/mL
Cmax ([4]; 2 mg/kg, dose 2, IV): 2000 ng/mL
AUC(0-t) ([4]; 10 mg/kg, dose 10, PO): 990 ng·h/mL
Cmax ([4]; 10 mg/kg, dose 10, PO): 480 ng/mL
bioavailability ([4]; 10 mg/kg, dose 10, PO): 17%
microsomal CLint [3]: 11.7 µL/min/mg
IC50 (O. volvulus): 112 nM

COC(=O)Nc1nc2cc(C(=O)c3ccc4c(c3)C(C)(C)OB4O)ccc2[nH]1 [compound 22]
IC50 [1]: 0.28 µM
Papp A→B (P-gp (MDR1)): 26.2 ×10⁻⁶ cm/s
IC50 (O. volvulus): 10 nM

COC(=O)Nc1nc2ccc(C(=O)c3ccc4c(c3)B(O)OC4(C)C)cc2[nH]1 [compound 23]
IC50 [1]: > 100 µM
Papp A→B (P-gp (MDR1)): 20.7 ×10⁻⁶ cm/s
inhibition at 1 µM (O. volvulus): 0%
IC50 (O. volvulus): > 1000 nM

COC(=O)Nc1nc2ccc(C(=O)c3ccc(F)c4c3B(O)OC4)cc2[nH]1 [compound 26]
IC50 [1]: 30.3 µM
microsomal CLint [2]: 11.1 µL/min/mg
Papp A→B (P-gp (MDR1)): 21.7 ×10⁻⁶ cm/s
AUC(0-t) ([4]; 2 mg/kg, dose 2, IV): 18600 ng·h/mL
Cmax ([4]; 2 mg/kg, dose 2, IV): 10900 ng/mL
AUC(0-t) ([4]; 10 mg/kg, dose 10, PO): 23500 ng·h/mL
Cmax ([4]; 10 mg/kg, dose 10, PO): 1690 ng/mL
bioavailability ([4]; 10 mg/kg, dose 10, PO): 24%
microsomal CLint [3]: 11.6 µL/min/mg
IC50 (O. volvulus): 20 nM

COC(=O)Nc1nc2ccc(C(=O)c3cc(F)cc4c3B(O)OC4)cc2[nH]1 [compound 27]
IC50 [1]: 22 µM
microsomal CLint [2]: < 4 µL/min/mg
Papp A→B (P-gp (MDR1)): 32 ×10⁻⁶ cm/s
microsomal CLint [3]: < 4 µL/min/mg
IC50 (O. volvulus): 270 nM

COC(=O)Nc1nc2ccc(C(=O)c3c(F)ccc4c3B(O)OC4)cc2[nH]1 [compound 28]
IC50 [1]: > 100 µM
IC50 (O. volvulus): 1310 nM

COC(=O)Nc1nc2ccc(C(=O)c3ccc(Cl)c4c3B(O)OC4)cc2[nH]1 [compound 31]
IC50 [1]: 11.6 µM
microsomal CLint [2]: < 4 µL/min/mg
Papp A→B (P-gp (MDR1)): 28 ×10⁻⁶ cm/s
microsomal CLint [3]: < 4 µL/min/mg
IC50 (O. volvulus): 30 nM

COC(=O)Nc1nc2cc(C(=O)CCc3ccc4c(c3)B(O)OC4(C)C)ccc2[nH]1 [compound 32]
IC50 [1]: 0.46 µM
microsomal CLint [2]: 7.63 µL/min/mg
Papp A→B (P-gp (MDR1)): 16 ×10⁻⁶ cm/s
microsomal CLint [3]: 26.7 µL/min/mg
IC50 (O. volvulus): 290 nM

COC(=O)Nc1nc2cc(C(=O)CCCc3ccc4c(c3)B(O)OC4(C)C)ccc2[nH]1 [compound 33]
IC50 [1]: 0.02 µM
